From US20080248470A1, “GENETIC SCREENING FOR PREDICTING ANTIDEPRESSANT DRUG RESPONSE BASED ON THE MONOAMINE TRANSPORTER GENE POLYMORPHISM COMBINATION” (SUNGKYUNKWAN UNIVERSITY Foundation for Corporate …, priority 2007, published 2008)
“And” between values parts separate entries of the source, which are not always exact repeats. Equal values may be shown once. Read-outs that look alike come from different tables or passages of the source.

What was measured:
[1] = system: patients with major depressive episode; details: for change in depression score (HAM-D), FIG. 2: after 6 weeks
Procedure: In the present invention, experiments were conducted on patients other than the patient group of a prior report (reference 6). The patient subjects who participated in the experiments of the present invention were all […] and were enrolled in the Clinical Trials Program of the Samsung Medical Center Geropsychiatry and Affective Disorder Clinics (Seoul Korea). The affective disorder section of the Samsung Psychiatric Evaluation Schedule (SPES) uses the Korean version of the Structured Clinical Interview for DSM-IV Axis-I disorders (SCID-IV; 4th edition, reference 17).
In the present invention, at least one family member who is living with the patient was interviewed to supplement the patient's report of symptoms, behaviors, level of functioning, duration of episode, and recent treatments. The patient subjects who participated in the experiments of the present invention all fulfilled DSM-IV criteria for major depressive episode, the Korean version of the Structured Clinical Interview for DSM-IV Axis-I disorders (4th edition). Diagnoses were confirmed by a board certified psychiatrist on the basis of the SPES, case review notes, and other relevant data. A minimum baseline 17-item Hamilton depression scale (HAM-D) score of 15 was required.
Patient subjects, who received other psychotropic medications within 2 weeks of the study or fluoxetine within 4 weeks, were excluded. In the present invention, potential subjects were excluded for pregnancy, significant medical conditions, abnormal laboratory baseline values, unstable psychiatric features (e.g., suicidality), history of alcohol or drug dependence, seizures, head trauma with loss of consciousness, neurologic illness, or concomitant Axis I psychiatric disorder. The protocol was approved by the ethics review board of Samsung Medical Center, Seoul, Korea. Signed informed consent was obtained from all participants.
Dose titration was completed within 2 weeks.
Remission was defined as a HAM-D of less than 8 at 6 weeks (reference 19).
In the present invention, 208 patients (86% of the original participants) completed the six-week treatment trial. Sixteen patients receiving NRI treatment and 17 patients receiving SSRI treatment dropped out. […] Ten patients were excluded, either because their plasma drug concentrations were undetectable, consistent with noncompliance (N=6) or were in the range consistent with extensive drug metabolism (<200 ng/ml norfluoxetine-fluoxetine and <30 ng/ml sertraline, N=4) (reference 20). […] These 33 dropouts were excluded in data analyses.
Genomic DNA was extracted from whole blood using a Wizard Genomic Purification kit (Promega, Madison, Wis., USA). The present inventors analyzed the genotype of the 5-HTT promoter s/l polymorphism (5-HTTLPR), the genotype of the 5-HTT intron 2 s/l polymorphism, and the NET G1287A polymorphism in exon 9. For this purpose, the G1287A polymorphism in exon 9 was amplified by PCR with primers of SEQ ID NO: 1 and SEQ ID NO: 2 and digested by restriction enzyme Sau96I.

[2] = plasma drug levels by HPLC-MS/MS, trough samples at end of week 4

| Structure (SMILES) | Response rate ([1]; 5-HTT promoter (5-HTTLPR) ss genotype, 6 weeks, listed as NRI) | Response rate ([1]; NET A carrier + 5-HTT promoter l carrier, any intron 2 genotype) | Response rate ([1]; NET A carrier + 5-HTT promoter ss, any intron 2 genotype) | Response rate ([1]; NET G1287A AA genotype, 6 weeks) | Response rate ([1]; NET G1287A GA genotype, 6 weeks) | Response rate ([1]; NET G1287A GA+AA genotypes (A allele carriers), 6 weeks) | Response rate ([1]; NET G1287A GA+AA genotypes (A allele carriers), 6 weeks, listed as NRI) | change in depression score (HAM-D), FIG. 2 ([1]; NET G1287A GA+AA genotypes) | change in depression score (HAM-D), FIG. 2 ([1]; NET G1287A GG genotype) | Rate of remission (HAM-D of less than 8 at 6 weeks) ([1]; all patients who completed the 6-week trial) | Response rate (50% or greater decrease in HAM-D score at 6 weeks) ([1]; all patients who completed the 6-week trial, listed as NRI) | expected treatment success rate when prescribed on NET G1287A examination ([1]; patient having the GG genotype) | Plasma levels (mean ±SD) ([2]; non-responders) | Plasma levels (mean ±SD) ([2]; responders) |
| --- | --- | --- | --- | --- | --- | --- | --- | --- | --- | --- | --- | --- | --- | --- |
| CNCCC=C1c2ccccc2CCc2ccccc21 [nortriptyline] | 76% and 38/50(76.0) % | 22% | 63% | 4/6(66.7) % | 16/41(39.0) % | 43% | 42.6% | 0.11 | 0.14 | 29% | 62% and 55/89 (61.8) % | 83.35% | 123 ± 23 ng/mL | 116 ± 21 ng/mL |
| CN[C@H]1CC[C@@H](c2ccc(Cl)c(Cl)c2)c2ccccc21 [sertraline] | – | – | – | – | – | – | – | – | – | – | – | – | 72 ± 28 ng/mL | 75 ± 29 ng/mL |
